Test system: 953936-095-R-J2-PDC spheroids with HUVEC/MSC, viability
Assay: Anticancer human tumor 953936-095-R-J2-PDC patient-derived cervical squamous cell carcinoma cell line growth inhibition [PI3K]
Details: for IC50: curve of first compound; for viability, T/C: stronger effect = lower value
Method in brief: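 Viability of mixed-cell spheroids was determined after exposure to pairwise combinations, one partner being inavolisib, alpelisib, duvelisib or copanlisib. Highest tested concentration matched clinical Cmax where known and 10 microM where not, descending in half-log steps.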

[1] = second compound 0.0316 µM, first compound 0.0316 µM
[2] = second compound 0.0316 µM, first compound 0.1 µM
[3] = second compound 0.1 µM, first compound 0.0316 µM
[4] = second compound 0.1 µM, first compound 0.1 µM
[5] = second compound 0.316 µM, first compound 0.0316 µM
[6] = second compound 0.316 µM, first compound 0.1 µM
[7] = second compound 1 µM, first compound 0.0316 µM
[8] = second compound 1 µM, first compound 0.1 µM
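Note: spheroids exposed to compounds for seven days before read-out.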

Work on `CC1(C)CCC(CN2CCN(c3ccc(C(=O)NS(=O)(=O)c4ccc(NCC5CCOCC5)c([N+](=O)[O-])c4)c(Oc4cnc5[nH]ccc5c4)c3)CC2)=C(c2ccc(Cl)cc2)C1` + CC(Nc1ccc2c(c1)OCCn1cc(N3C(=O)OCC3C(F)F)nc1-2)C(N)=O yielded an IC50 (second compound 0.00316 µM) of 6920 nM, an IC50 (second compound 0.01 µM) of 8420 nM and an IC50 (second compound 0.0316 µM) of 8120 nM. It also gave an IC50 (second compound 0.1 µM) of over 10000 nM, an IC50 (second compound 0.316 µM) of under 31.6 nM and an IC50 (second compound 1 µM) of under 31.6 nM. The viability, T/C (second compound 0.00316 µM, first compound 0.0316 µM) was 88.4%, the viability, T/C (second compound 0.00316 µM, first compound 0.1 µM) was 89.8% and the viability, T/C (second compound 0.00316 µM, first compound 0.316 µM) was 90.4%. For the same compound, the viability, T/C (second compound 0.00316 µM, first compound 1 µM) was 100%, the viability, T/C (second compound 0.00316 µM, first compound 3.16 µM) was 142% and the viability, T/C (second compound 0.00316 µM, first compound 10 µM) was 25.5%. It also gave a viability, T/C (second compound 0.01 µM, first compound 0.0316 µM) of 90.2%, a viability, T/C (second compound 0.01 µM, first compound 0.1 µM) of 88.9% and a viability, T/C (second compound 0.01 µM, first compound 0.316 µM) of 92.3%. The viability, T/C (second compound 0.01 µM, first compound 1 µM) was 93.6%, the viability, T/C (second compound 0.01 µM, first compound 3.16 µM) was 115% and the viability, T/C (second compound 0.01 µM, first compound 10 µM) was 41.9%. It also gave a viability, T/C [1] of 77%, a viability, T/C [2] of 74.6% and a viability, T/C (second compound 0.0316 µM, first compound 0.316 µM) of 75.8%. It also gave a viability, T/C (second compound 0.0316 µM, first compound 1 µM) of 75.8%, a viability, T/C (second compound 0.0316 µM, first compound 3.16 µM) of 85% and a viability, T/C (second compound 0.0316 µM, first compound 10 µM) of 44%. It also gave a viability, T/C [3] of 57.7%, a viability, T/C [4] of 53% and a viability, T/C (second compound 0.1 µM, first compound 0.316 µM) of 53.1%. For the same compound, the viability, T/C (second compound 0.1 µM, first compound 1 µM) was 59.4%, the viability, T/C (second compound 0.1 µM, first compound 3.16 µM) was 59.5% and the viability, T/C (second compound 0.1 µM, first compound 10 µM) was 48.3%. It also gave a viability, T/C [5] of 35.7%, a viability, T/C [6] of 36% and a viability, T/C (second compound 0.316 µM, first compound 0.316 µM) of 33.5%. For the same compound, the viability, T/C (second compound 0.316 µM, first compound 1 µM) was 31.8%, the viability, T/C (second compound 0.316 µM, first compound 3.16 µM) was 32.5% and the viability, T/C (second compound 0.316 µM, first compound 10 µM) was 36.9%. For the same compound, the viability, T/C [7] was 22.3%, the viability, T/C [8] was 24.4% and the viability, T/C (second compound 1 µM, first compound 0.316 µM) was 21.2%. For the same compound, the viability, T/C (second compound 1 µM, first compound 1 µM) was 22.1%, the viability, T/C (second compound 1 µM, first compound 3.16 µM) was 22.1% and the viability, T/C (second compound 1 µM, first compound 10 µM) was 21.7%.

`Cn1cnc2c(F)c(Nc3ccc(Br)cc3Cl)c(C(=O)NOCCO)cc21` + CC(Nc1ccc2c(c1)OCCn1cc(N3C(=O)OCC3C(F)F)nc1-2)C(N)=O gave an IC50 (second compound 0.00316 µM) of 494 nM, an IC50 (second compound 0.01 µM) of 279 nM and an IC50 (second compound 0.0316 µM) of 88.5 nM. The IC50 (second compound 0.1 µM) was under 9.49 nM, the IC50 (second compound 0.316 µM) was under 9.49 nM and the IC50 (second compound 1 µM) was under 9.49 nM. For the same compound, the viability, T/C (second compound 0.00316 µM, first compound 0.00949 µM) was 88.3%, the viability, T/C (second compound 0.00316 µM, first compound 0.03 µM) was 81.4% and the viability, T/C (second compound 0.00316 µM, first compound 0.0949 µM) was 66%. For the same compound, the viability, T/C (second compound 0.00316 µM, first compound 0.3 µM) was 55.7%, the viability, T/C (second compound 0.00316 µM, first compound 0.949 µM) was 43.7% and the viability, T/C (second compound 0.00316 µM, first compound 3 µM) was 30.2%. For the same compound, the viability, T/C (second compound 0.01 µM, first compound 0.00949 µM) was 75.6%, the viability, T/C (second compound 0.01 µM, first compound 0.03 µM) was 68.5% and the viability, T/C (second compound 0.01 µM, first compound 0.0949 µM) was 60%. The viability, T/C (second compound 0.01 µM, first compound 0.3 µM) was 51.5%, the viability, T/C (second compound 0.01 µM, first compound 0.949 µM) was 35% and the viability, T/C (second compound 0.01 µM, first compound 3 µM) was 26.3%. For the same compound, the viability, T/C (second compound 0.0316 µM, first compound 0.00949 µM) was 67.9%, the viability, T/C (second compound 0.0316 µM, first compound 0.03 µM) was 56.6% and the viability, T/C (second compound 0.0316 µM, first compound 0.0949 µM) was 49.7%. The viability, T/C (second compound 0.0316 µM, first compound 0.3 µM) was 42.5%, the viability, T/C (second compound 0.0316 µM, first compound 0.949 µM) was 29.7% and the viability, T/C (second compound 0.0316 µM, first compound 3 µM) was 20.6%. The viability, T/C (second compound 0.1 µM, first compound 0.00949 µM) was 46%, the viability, T/C (second compound 0.1 µM, first compound 0.03 µM) was 41.2% and the viability, T/C (second compound 0.1 µM, first compound 0.0949 µM) was 38.7%. It also gave a viability, T/C (second compound 0.1 µM, first compound 0.3 µM) of 23.9%, a viability, T/C (second compound 0.1 µM, first compound 0.949 µM) of 16.1% and a viability, T/C (second compound 0.1 µM, first compound 3 µM) of 7.95%. It also gave a viability, T/C (second compound 0.316 µM, first compound 0.00949 µM) of 28.1%, a viability, T/C (second compound 0.316 µM, first compound 0.03 µM) of 23% and a viability, T/C (second compound 0.316 µM, first compound 0.0949 µM) of 16.6%. For the same compound, the viability, T/C (second compound 0.316 µM, first compound 0.3 µM) was 11.6%, the viability, T/C (second compound 0.316 µM, first compound 0.949 µM) was 6.22% and the viability, T/C (second compound 0.316 µM, first compound 3 µM) was 3.26%. The viability, T/C (second compound 1 µM, first compound 0.00949 µM) was 18.6%, the viability, T/C (second compound 1 µM, first compound 0.03 µM) was 14.5% and the viability, T/C (second compound 1 µM, first compound 0.0949 µM) was 10.3%. The viability, T/C (second compound 1 µM, first compound 0.3 µM) was 8.09%, the viability, T/C (second compound 1 µM, first compound 0.949 µM) was 4.74% and the viability, T/C (second compound 1 µM, first compound 3 µM) was 1.5%.

With `Cn1ncnc1[C@H]1c2n[nH]c(=O)c3cc(F)cc(c23)N[C@@H]1c1ccc(F)cc1` + Cc1nc(NC(=O)N2CCCC2C(N)=O)sc1-c1ccnc(C(C)(C)C(F)(F)F)c1 the IC50 (second compound 0.0316 µM) was over 100 nM, the IC50 (second compound 0.1 µM) was over 100 nM and the IC50 (second compound 0.316 µM) was over 100 nM. The IC50 (second compound 1 µM) was under 0.316 nM, the IC50 (second compound 3.16 µM) was under 0.316 nM and the IC50 (second compound 10 µM) was under 0.316 nM. For the same compound, the viability, T/C (second compound 0.0316 µM, first compound 0.000316 µM) was 91.5%, the viability, T/C (second compound 0.0316 µM, first compound 0.001 µM) was 94.8% and the viability, T/C (second compound 0.0316 µM, first compound 0.00316 µM) was 99.5%. The viability, T/C (second compound 0.0316 µM, first compound 0.01 µM) was 90.9%, the viability, T/C [1] was 94.6% and the viability, T/C [2] was 95.7%. For the same compound, the viability, T/C (second compound 0.1 µM, first compound 0.000316 µM) was 86.6%, the viability, T/C (second compound 0.1 µM, first compound 0.001 µM) was 79.2% and the viability, T/C (second compound 0.1 µM, first compound 0.00316 µM) was 83.7%. For the same compound, the viability, T/C (second compound 0.1 µM, first compound 0.01 µM) was 80.9%, the viability, T/C [3] was 83.3% and the viability, T/C [4] was 81.5%. It also gave a viability, T/C (second compound 0.316 µM, first compound 0.000316 µM) of 63.3%, a viability, T/C (second compound 0.316 µM, first compound 0.001 µM) of 63.9% and a viability, T/C (second compound 0.316 µM, first compound 0.00316 µM) of 62.8%. For the same compound, the viability, T/C (second compound 0.316 µM, first compound 0.01 µM) was 62.5%, the viability, T/C [5] was 66.6% and the viability, T/C [6] was 58.2%. For the same compound, the viability, T/C (second compound 1 µM, first compound 0.000316 µM) was 45.1%, the viability, T/C (second compound 1 µM, first compound 0.001 µM) was 48.6% and the viability, T/C (second compound 1 µM, first compound 0.00316 µM) was 44.9%. It also gave a viability, T/C (second compound 1 µM, first compound 0.01 µM) of 43.8%, a viability, T/C [7] of 43.2% and a viability, T/C [8] of 39.6%. For the same compound, the viability, T/C (second compound 3.16 µM, first compound 0.000316 µM) was 27%, the viability, T/C (second compound 3.16 µM, first compound 0.001 µM) was 26.2% and the viability, T/C (second compound 3.16 µM, first compound 0.00316 µM) was 26.4%. It also gave a viability, T/C (second compound 3.16 µM, first compound 0.01 µM) of 26.3%, a viability, T/C (second compound 3.16 µM, first compound 0.0316 µM) of 26.5% and a viability, T/C (second compound 3.16 µM, first compound 0.1 µM) of 25.5%. It also gave a viability, T/C (second compound 10 µM, first compound 0.000316 µM) of 11.4%, a viability, T/C (second compound 10 µM, first compound 0.001 µM) of 10.4% and a viability, T/C (second compound 10 µM, first compound 0.00316 µM) of 10.1%. For the same compound, the viability, T/C (second compound 10 µM, first compound 0.01 µM) was 11.6%, the viability, T/C (second compound 10 µM, first compound 0.0316 µM) was 12.5% and the viability, T/C (second compound 10 µM, first compound 0.1 µM) was 10.9%.

— PubChem BioAssay AID1963971 (Molecular Pharmacology Branch, DTP, NCI, 2024)
